Test results as given in PubChem BioAssay AID2060884 (Molecular Pharmacology Branch, DTP, NCI, 2025).
Values joined by “and” are separate entries in the source; they are usually repeats but may differ in a detail not shown here. Equal values may be shown once. Each block holds one compound with its values, some of them ahead of it.

Test system: NCI-H929 complex spheroids, viability % test/control
Experiment: Anticancer human tumor NCI-H929 cell line growth inhibition [RAS];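 note: compound exposure lasted seven days before viability was read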;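 for viability, T/C: 100% = DMSO vehicle control viability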
Conditions: for viability, T/C: stronger effect = lower value
Method in brief: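 Agents were tested in combination matrices in half-log decrements from a top concentration at or near clinical Cmax (10 microM if undetermined). Targets were multi-cell spheroids of tumour lines plus HUVEC and MSC stromal cells.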

[1] = curve of first compound, second compound 0.00316 µM
[2] = curve of first compound, second compound 0.01 µM
[3] = curve of first compound, second compound 0.0316 µM
[4] = curve of first compound, second compound 0.1 µM
[5] = curve of first compound, second compound 0.316 µM
[6] = curve of first compound, second compound 1 µM
[7] = second compound 0.00316 µM, first compound 0.0316 µM
[8] = second compound 0.00316 µM, first compound 0.1 µM
[9] = second compound 0.00316 µM, first compound 0.316 µM
[10] = second compound 0.00316 µM, first compound 1 µM
[11] = second compound 0.00316 µM, first compound 3.16 µM
[12] = second compound 0.00316 µM, first compound 10 µM
[13] = second compound 0.01 µM, first compound 0.0316 µM
[14] = second compound 0.01 µM, first compound 0.1 µM
[15] = second compound 0.01 µM, first compound 0.316 µM
[16] = second compound 0.01 µM, first compound 1 µM
[17] = second compound 0.01 µM, first compound 3.16 µM
[18] = second compound 0.01 µM, first compound 10 µM
[19] = second compound 0.0316 µM, first compound 0.0316 µM
[20] = second compound 0.0316 µM, first compound 0.1 µM
[21] = second compound 0.0316 µM, first compound 0.316 µM
[22] = second compound 0.0316 µM, first compound 1 µM
[23] = second compound 0.0316 µM, first compound 3.16 µM
[24] = second compound 0.0316 µM, first compound 10 µM
[25] = second compound 0.1 µM, first compound 0.0316 µM
[26] = second compound 0.1 µM, first compound 0.1 µM
[27] = second compound 0.1 µM, first compound 0.316 µM
[28] = second compound 0.1 µM, first compound 1 µM
[29] = second compound 0.1 µM, first compound 3.16 µM
[30] = second compound 0.1 µM, first compound 10 µM
[31] = second compound 0.316 µM, first compound 0.0316 µM
[32] = second compound 0.316 µM, first compound 0.1 µM
[33] = second compound 0.316 µM, first compound 0.316 µM
[34] = second compound 0.316 µM, first compound 1 µM
[35] = second compound 0.316 µM, first compound 3.16 µM
[36] = second compound 0.316 µM, first compound 10 µM
[37] = second compound 1 µM, first compound 0.0316 µM
[38] = second compound 1 µM, first compound 0.1 µM
[39] = second compound 1 µM, first compound 0.316 µM
[40] = second compound 1 µM, first compound 1 µM
[41] = second compound 1 µM, first compound 3.16 µM
[42] = second compound 1 µM, first compound 10 µM

IC50 [1]: > 10000 nM | IC50 [2]: > 10000 nM | IC50 [3]: > 10000 nM | IC50 [4]: > 10000 nM | IC50 [5]: > 10000 nM | IC50 [6]: > 10000 nM
Structure (SMILES): NC1c2ccccc2OC12CCN(c1cnc3c(N4CCCc5ncccc54)n[nH]c3n1)CC2 (stereo unspecified) + C=CC(=O)N1CCN(c2nc(OCC3CCCN3C)nc3c(F)c(-c4nc(N)cc(C)c4C(F)(F)F)c(Cl)cc23)C(C)C1
viability, T/C [7]: 98.8% | viability, T/C [8]: 94.8% | viability, T/C [9]: 99.3% | viability, T/C [10]: 98.9% | viability, T/C [11]: 101% | viability, T/C [12]: 66.2% | viability, T/C [13]: 96.2% | viability, T/C [14]: 90.6% | viability, T/C [15]: 96% | viability, T/C [16]: 103% | viability, T/C [17]: 99% | viability, T/C [18]: 66.8% | viability, T/C [19]: 96.9% | viability, T/C [20]: 99.7% | viability, T/C [21]: 101% | viability, T/C [22]: 99.8% | viability, T/C [23]: 96.6% | viability, T/C [24]: 63.5% | viability, T/C [25]: 92.4% | viability, T/C [26]: 99% | viability, T/C [27]: 102% | viability, T/C [28]: 97.4% | viability, T/C [29]: 97.5% | viability, T/C [30]: 69.3% | viability, T/C [31]: 101% | viability, T/C [32]: 103% | viability, T/C [33]: 105% | viability, T/C [34]: 103% | viability, T/C [35]: 102% | viability, T/C [36]: 71.7% | viability, T/C [37]: 104% | viability, T/C [38]: 107% | viability, T/C [39]: 103% | viability, T/C [40]: 102% | viability, T/C [41]: 105% | viability, T/C [42]: 68.9%

IC50 (curve of compound): 33.1 nM and 62.7 nM and 55.5 nM
Structure (SMILES): CC(C)n1nc(-c2ccc3oc(N)nc3c2)c2c(N)ncnc21
viability, T/C (compound 0.000316 µM): 105% [middle of 4 runs] | viability, T/C (compound 0.001 µM): 104% (2×) and 99.9% and 103% | viability, T/C (compound 0.00316 µM): 110% [middle of 4 runs] | viability, T/C (compound 0.01 µM): 99% and 112% (2×) and 109% | viability, T/C (compound 0.0316 µM): 52.1% and 119% (2×) and 94.3% | viability, T/C (compound 0.1 µM): 9.59% [middle of 4 runs]

IC50 [1]: 1720 nM | IC50 [2]: 1770 nM | IC50 [3]: 1750 nM | IC50 [4]: 1760 nM | IC50 [5]: 1770 nM | IC50 [6]: 1780 nM
Structure (SMILES): CCC(CC)c1cc(NC2CCC(N)C2)n2nccc2n1 (stereo unspecified) + C=CC(=O)N1CCN(c2nc(OCC3CCCN3C)nc3c(F)c(-c4nc(N)cc(C)c4C(F)(F)F)c(Cl)cc23)C(C)C1
viability, T/C [7]: 100% | viability, T/C [8]: 91.7% | viability, T/C [9]: 93.5% | viability, T/C [10]: 93.2% | viability, T/C [11]: 1.09% | viability, T/C [12]: 0.82% | viability, T/C [13]: 96.3% | viability, T/C [14]: 98.3% | viability, T/C [15]: 97.9% | viability, T/C [16]: 97.9% | viability, T/C [17]: 1.58% | viability, T/C [18]: 0.56% | viability, T/C [19]: 93.3% | viability, T/C [20]: 95.7% | viability, T/C [21]: 97.3% | viability, T/C [22]: 100% | viability, T/C [23]: 1.12% | viability, T/C [24]: 0.24% | viability, T/C [25]: 95.9% | viability, T/C [26]: 96.1% | viability, T/C [27]: 99.4% | viability, T/C [28]: 99.6% | viability, T/C [29]: 0.2% | viability, T/C [30]: 0.59% | viability, T/C [31]: 98.5% | viability, T/C [32]: 99.4% | viability, T/C [33]: 94.7% | viability, T/C [34]: 101% | viability, T/C [35]: 1% | viability, T/C [36]: 0.48% | viability, T/C [37]: 106% | viability, T/C [38]: 104% | viability, T/C [39]: 97% | viability, T/C [40]: 99.2% | viability, T/C [41]: 0.64% | viability, T/C [42]: 0.11%
